Experimental data reported in the NIST ThermoML archive (doi:10.1016/j.jct.2015.11.005).
Numbers after ± are expanded uncertainties.

Conditions: Crystal; visual observation

Normal melting temperature: 156.00 ± 2.1 °C
Structure (SMILES): COc1ccc2[nH]c([S+]([O-])Cc3ncc(C)c(OC)c3C)nc2c1 (stereo unspecified) [Omeprazole]
